The text below walks through data of patent US11827628B2, “Compositions and methods for inhibition of the JAK pathway” (Rigel Pharmaceuticals, Inc., priority 2005, dated 2023).

For this experiment, the system named is up-regulation of ICAM-1 (CD54) by IFNγ in U937 human monocytic cells. The experiment is described as follows: U937 IFNγ ICAM1 FACS Assay. Format: cell-based. To be noted: Homo sapiens, U-937, U937 cells stimulated with IFNγ, ICAM-1 expression by FACS; read-out: IC50, Example 44. The method, boiled down:
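U937 cells in 10% FCS RPMI were preincubated 30 min at 37 °C with an 8-point, 3-fold compound dilution series in duplicate, then stimulated with IFNγ for 18–24 h. Surface ICAM-1 was stained with APC anti-ICAM-1 and read by flow cytometry as geometric mean on live-gated cells. EC50 was derived.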
By IC50 is commonly meant the concentration that inhibits the measured activity by half. Take `Cc1ccc(Nc2ncc(F)c(Nc3ccc(C)c(S(N)(=O)=O)c3)n2)cc1S(N)(=O)=O` [VI-114, N2,N4-Bis-(3-aminosulfonyl-4-methylphenyl)-5-fluoro-2,4-pyrimidinediamine]: the IC50 was 33200 nM.

With `COc1ccc(Nc2nc(Nc3ccc(N4CCN(C)CC4)c(S(N)(=O)=O)c3)ncc2F)cc1Cl` [VI-116, N2-[3-Aminosulfonyl-4-(4-methylpiperazine-1-yl)phenyl]-N4-(3-chloro-4-methoxyphenyl)-5-fluoro-2,4-pyrimidinediamine], the IC50 is 673 nM. The result for `COc1ccc(Nc2nc(Nc3cccc(S(N)(=O)=O)c3)ncc2F)cn1` [VII-6, N2-(3-Aminosulfonylphenyl)-5-fluoro-N4-(2-methoxypyrid-5-yl)-2,4-pyrimidinediamine] reads 3650 nM. The result for `COc1ccc(Nc2nc(Nc3ccc(C)c(S(N)(=O)=O)c3)ncc2F)nc1N` [VII-9, N2-(3-Aminosulfonyl-4-methylphenyl)-N4-[2-amino-3-methoxypyrid-6-yl]-5-fluoro-2,4-pyrimidinediamine] reads 5350 nM; that for `CN1C(=O)C(C)(C)S(=O)(=O)c2ccc(Nc3nc(Nc4ccc(S(N)(=O)=O)cc4)ncc3F)cc21` [VII-12, N2-(4-Aminosulphonylphenyl)-5-fluoro-N4-(2,2,4-trimethyl-1,1,3-trioxo-benzo[1,4]thiazin-6-yl)-2,4-pyrimidinediamine], 31800 nM; that for `Cc1ccc(Nc2ncc(C)c(Nc3ccc4c(c3)NC(=O)CO4)n2)cc1S(N)(=O)=O` [VII-30, N2-(3-Aminosulphonyl-4-methylphenyl)-5-methyl-N4-(3-oxo-benz[1,4]oxazin-6-yl)-2,4-pyrimidinediamine], 701 nM. With `Cc1cnc(Nc2ccc(S(N)(=O)=O)cc2)nc1Nc1ccc2c(c1)NC(=O)CO2` [VII-31, N2-(4-Aminosulphonylphenyl)-5-methyl-N4-(3-oxo-benz[1,4]oxazin-6-yl)-2,4-pyrimidinediamine] the figure was 7280 nM; with `Cc1cnc(Nc2cccc(S(N)(=O)=O)c2)nc1Nc1ccc2c(c1)NC(=O)CO2` [VII-32, N2-(3-Aminosulphonylphenyl)-5-methyl-N4-(3-oxo-benz[1,4]oxazin-6-yl)-2,4-pyrimidinediamine], 2060 nM; with `Cc1cnc(Nc2cccc(S(N)(=O)=O)c2)nc1Nc1ccc2c(c1)N(C)C(=O)CS2` [VII-35, N2-(3-Aminosulphonylphenyl)-5-methyl-N4-(4-methyl-3-oxo-benzo[1,4]thiazin-6-yl)-2,4-pyrimidinediamine], 245 nM. Take `Cc1ccc(Nc2ncc(F)c(Nc3ccc4c(c3)NC(=O)CS4)n2)cc1S(N)(=O)=O` [VII-44, N2-(3-Aminosulphonyl-4-methyl-phenyl)-5-fluoro-N4-(3-oxo-4H-benzo[1,4]thiazin-6-yl)-2,4-pyrimidinediamine]: the IC50 turned out to be 1230 nM. `CN1C(=O)CSc2ccc(Nc3nc(Nc4ccc(S(N)(=O)=O)cc4)ncc3F)cc21` [VII-48, N2-(4-Aminosulfonylphenyl)-5-fluoro-N4-(4-methyl-3-oxo-benz[1,4]thiazin-6-yl)-2,4-pyrimidinediamine]: the IC50 worked out at 660 nM. For the compound `CN1C(=O)CSc2ccc(Nc3nc(Nc4cccc(S(N)(=O)=O)c4)ncc3F)cc21` [VII-49, N2-(3-Aminosulfonylphenyl)-5-fluoro-N4-(4-methyl-3-oxo-benz[1,4]thiazin-6-yl)-2,4-pyrimidinediamine], the IC50 was 577 nM.

On to `NC(=O)c1cc2cc(Nc3nc(Nc4cccc(S(N)(=O)=O)c4)ncc3F)ccc2o1` [VII-54, N2-(3-Aminosulfonylphenyl)-N4-(2-aminocarbonylbenzofurane-5-yl)-5-fluoro-2,4-pyrimidinediamine], for which the IC50 was found to be 64600 nM. `Cc1ccc(Nc2ncc(F)c(Nc3ccc4sccc4c3)n2)cc1S(N)(=O)=O` [VII-57, N2-(3-Aminosulfonyl-4-methylphenyl)-N4-(benzothiophen-5-yl)-5-fluoro-2,4-pyrimidinediamine]: the IC50 worked out at 735 nM. `NS(=O)(=O)c1cccc(Nc2ncc(F)c(Nc3ccc4sccc4c3)n2)c1` [VII-58, N2-(3-Aminosulfonylphenyl)-N4-(benzothiophen-5-yl)-5-fluoro-2,4-pyrimidinediamine]: the IC50 is 1100 nM. Regarding `Cc1ccc(Nc2ncc(F)c(Nc3ccc4ncccc4c3)n2)cc1S(N)(=O)=O` [VII-69, N2-(3-Aminosulfonyl-4-methylphenyl)-5-fluoro-N4-(quinolin-6-yl)-2,4-pyrimidinediamine], the IC50 was 990 nM. The result for `NS(=O)(=O)c1cccc(Nc2ncc(F)c(Nc3ccc4ncccc4c3)n2)c1` [VII-70, N2-(3-Aminosulfonylphenyl)-5-fluoro-N4-(quinolin-6-yl)-2,4-pyrimidinediamine] reads 2760 nM.

As for `Cc1ccc2cc(Nc3nc(Nc4cccc(S(N)(=O)=O)c4)ncc3F)ccc2n1` [VII-72, N2-(3-Aminosulfonylphenyl)-5-fluoro-N4-(2-methylquinolin-6-yl)-2,4-pyrimidinediamine], the IC50 is 1180 nM.

With `Cc1ccc(Nc2ncc(F)c(Nc3cccc4cccnc34)n2)cc1S(N)(=O)=O` [VII-77, N2-(3-Aminosulfonyl-4-methylphenyl)-5-fluoro-N4-(quinolin-8-yl)-2,4-pyrimidinediamine], the 50% inhibitory concentration (IC50) is 3540 nM.
